Here are results for seven compounds from PubChem BioAssay (NCI).

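Interpolation was linear, between the two tested concentrations surrounding the appropriate level; five concentrations were tested over 48 hours in 96-well plates. TGI marks complete inhibition of growth.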

Some test systems named below: A549 NSCLC; BT-549 breast; CAKI-1 renal; CCRF-CEM leukemia; COLO 205 colon; EKVX NSCLC; HCT-15 colon; KM12 colon; M14 melanoma; MCF7 breast; MDA-MB-231 breast; NCI-H23 lung; NCI-H460 lung; OVCAR-3 ovarian; OVCAR-5 ovarian; RPMI-8226 leukemia; SF-295 CNS; SK-MEL-2 melanoma; SK-MEL-5 melanoma; UO-31 renal.
Common to all, as to test: NCI tumour cell line growth inhibition, 48 h

Turning to `Cc1cc2nc(NS(=O)(=O)c3cc(C)c(Cl)cc3S)[nH]c2cc1C`, the TGI in the assay on A549 NSCLC was greater than 100 µM; with BT-549 breast it was greater than 100 µM; with CAKI-1 renal, greater than 100 µM; with CCRF-CEM leukemia, 81.8 µM; in the assay with COLO 205 colon it was greater than 100 µM; in the assay on EKVX NSCLC, greater than 100 µM. Besides, the TGI in the assay with HCT-15 colon, in the assay on KM12 colon, with M14 melanoma, with MCF7 breast, in the assay with MDA-MB-231 breast and with NCI-H23 lung was greater than 100 µM throughout. Besides, the TGI is 43.1 µM with NCI-H460 lung; greater than 100 µM in the assay with OVCAR-3 ovarian; greater than 100 µM with OVCAR-5 ovarian; greater than 100 µM in the assay on RPMI-8226 leukemia; greater than 100 µM in the assay with SF-295 CNS; greater than 100 µM in the assay with SK-MEL-2 melanoma. For the same compound, the TGI in the assay on SK-MEL-5 melanoma and in the assay with UO-31 renal was greater than 100 µM in each case.
Regarding `CCOC(=O)c1ccc2c(=O)n3c(C(=O)OCC)ccc3c(=O)n12`, the TGI in the assay on A549 NSCLC, with BT-549 breast, in the assay on CAKI-1 renal, in the assay on CCRF-CEM leukemia, in the assay on COLO 205 colon and in the assay on EKVX NSCLC was greater than 100 µM each time. Also, the TGI with HCT-15 colon, in the assay on KM12 colon, in the assay with M14 melanoma, with MCF7 breast, in the assay with MDA-MB-231 breast and in the assay with NCI-H23 lung was greater than 100 µM throughout. The TGI with NCI-H460 lung, in the assay on OVCAR-3 ovarian, with OVCAR-5 ovarian, in the assay with RPMI-8226 leukemia, in the assay on SF-295 CNS and with SK-MEL-2 melanoma was greater than 100 µM throughout. The TGI with SK-MEL-5 melanoma and in the assay on UO-31 renal was greater than 100 µM in each case.
With `COc1ccc2c(c1)-c1c(c3ccccc3n1CCN1CCOCC1)CC2`, the TGI with A549 NSCLC is greater than 100 µM; in the assay on BT-549 breast, 63.5 µM; with CAKI-1 renal it was 81.9 µM; in the assay with CCRF-CEM leukemia, 85.8 µM; with COLO 205 colon it was 32.5 µM; in the assay with EKVX NSCLC it was 63.8 µM. For the same compound, the TGI with HCT-15 colon is greater than 100 µM; with KM12 colon it was 26.7 µM; in the assay with M14 melanoma it was greater than 100 µM; in the assay on MCF7 breast, greater than 100 µM; in the assay with MDA-MB-231 breast, 90.9 µM; in the assay on NCI-H23 lung, 65.6 µM. The TGI was 34.2 µM with NCI-H460 lung; 56.6 µM with OVCAR-3 ovarian; greater than 100 µM in the assay with OVCAR-5 ovarian; 97 µM in the assay on RPMI-8226 leukemia; 35.5 µM in the assay with SF-295 CNS; 28.9 µM in the assay with SK-MEL-2 melanoma. For the same compound, the TGI with SK-MEL-5 melanoma came out at 31.3 µM; in the assay on UO-31 renal, 96.8 µM.
With `O=C(O)[C@H]1NC[C@@H]2ON=C(Br)[C@@H]21`, the TGI in the assay on A549 NSCLC, with BT-549 breast, in the assay on CAKI-1 renal, in the assay on CCRF-CEM leukemia, in the assay on COLO 205 colon and in the assay on EKVX NSCLC was greater than 100 µM throughout. The TGI with HCT-15 colon, in the assay on KM12 colon, in the assay with M14 melanoma, in the assay on MCF7 breast, in the assay with MDA-MB-231 breast and with NCI-H23 lung was greater than 100 µM throughout. In addition, the TGI in the assay with NCI-H460 lung, with OVCAR-3 ovarian, in the assay on OVCAR-5 ovarian, with RPMI-8226 leukemia, in the assay on SF-295 CNS and with SK-MEL-2 melanoma was greater than 100 µM in each case. The TGI in the assay on SK-MEL-5 melanoma and in the assay on UO-31 renal was greater than 100 µM throughout.
For the compound `O=c1[nH]c2cc([N+](=O)[O-])c(N(CCO)CCO)c([N+](=O)[O-])c2[nH]1`, the TGI in the assay on A549 NSCLC was greater than 100 µM; in the assay on BT-549 breast it was 51.7 µM; in the assay on CAKI-1 renal it was greater than 100 µM; with CCRF-CEM leukemia, greater than 100 µM; with COLO 205 colon it was 51.8 µM; in the assay on EKVX NSCLC it was 54.4 µM. Moreover, the TGI was greater than 100 µM with HCT-15 colon; 93.3 µM with KM12 colon; 89 µM in the assay with M14 melanoma; greater than 100 µM in the assay on MCF7 breast; greater than 100 µM in the assay with MDA-MB-231 breast; greater than 100 µM with NCI-H23 lung. Moreover, the TGI in the assay with NCI-H460 lung was 43.2 µM; in the assay on OVCAR-3 ovarian, 33.3 µM; in the assay with OVCAR-5 ovarian, greater than 100 µM; in the assay on RPMI-8226 leukemia, 98.1 µM; in the assay on SF-295 CNS it was greater than 100 µM; with SK-MEL-2 melanoma it was 96.1 µM. The values for the TGI in the assay with SK-MEL-5 melanoma and with UO-31 renal were 39.7 µM and greater than 100 µM, respectively.
For `CCN(CC)CCNc1ccc2nnn3c4ccc(OC(C)=O)cc4c(=O)c1c23`, the TGI in the assay with A549 NSCLC is greater than 40.6 µM; in the assay on BT-549 breast, 27.2 µM; with CAKI-1 renal it was 3.31 µM; in the assay with CCRF-CEM leukemia, 3.2 µM; in the assay on COLO 205 colon, 14.6 µM; with EKVX NSCLC, 19.3 µM. Also, the TGI in the assay on HCT-15 colon amounted to 13.6 µM; in the assay with KM12 colon, 15.4 µM; in the assay with M14 melanoma, 21 µM; with MCF7 breast it was 16.2 µM; in the assay on MDA-MB-231 breast, 16 µM; in the assay on NCI-H23 lung, 18.9 µM. In addition, the TGI in the assay with NCI-H460 lung was found to be 11.5 µM; in the assay on OVCAR-3 ovarian it was 22.2 µM; in the assay on OVCAR-5 ovarian, 24 µM; in the assay with RPMI-8226 leukemia it was 5.56 µM; in the assay on SF-295 CNS, 19.3 µM; in the assay with SK-MEL-2 melanoma, 30.7 µM. For the same compound, the TGI with SK-MEL-5 melanoma turned out to be 11.2 µM; in the assay with UO-31 renal it was 12.3 µM.
As for `CC1(C)OCC(C2OC(=O)C(OCc3ccccc3)=C2OCc2ccccc2)O1` (stereo not given), the TGI is greater than 100 µM with A549 NSCLC; 93.2 µM in the assay with BT-549 breast; greater than 100 µM in the assay with CAKI-1 renal; greater than 100 µM with CCRF-CEM leukemia; 50.6 µM in the assay on COLO 205 colon; greater than 100 µM in the assay with EKVX NSCLC. Moreover, the TGI was greater than 100 µM with HCT-15 colon; greater than 100 µM in the assay with KM12 colon; greater than 100 µM with M14 melanoma; greater than 100 µM in the assay on MCF7 breast; greater than 100 µM with MDA-MB-231 breast; 92.5 µM with NCI-H23 lung. The TGI in the assay on NCI-H460 lung is greater than 100 µM; with OVCAR-3 ovarian it was greater than 100 µM; in the assay on OVCAR-5 ovarian it was greater than 100 µM; in the assay with RPMI-8226 leukemia, 76.5 µM; in the assay on SF-295 CNS, greater than 100 µM; with SK-MEL-2 melanoma, 61 µM. Besides, the TGI with SK-MEL-5 melanoma is 32.3 µM; in the assay with UO-31 renal it was greater than 100 µM.
